Columns and labels:
U87VIII cells [1] = assay: FA-N3 tolerance experiment (resazurin viability); settings: FIG. 3E
Procedure: (§1) A 96-well plate was seeded with U87 cells (10,000/well), and the cells were allowed to grow overnight. Then the FA-N3 solution was added (100 μL per well, various concentrations) to the cells and incubated for 24 hours. After the incubation, the cell media was removed, and a resazurin solution (10 g/mL, in cell media) was added to the plate and incubated for 2 hours. The fluorescence was read by a plate reader (Biotek, 540 nm excitation/590 nm emission).

U87VIII cells [2] = assay: FA-N3 uptake experiment at the bulk level, dendrimer/BHQ2-N3 surface detection; type: cell-based, human
Procedure: The 3rd or 4th generation dendrimer was immobilized on the glass slide surface (described above). To generate a working curve of FA-N3, 45 μL of FA-N3 (various concentrations in 1×PBST) was added to each well. The slide was incubated at 37° C. for 2 hours, allowing FA-N3 to react with the DBCO groups on the dendrimer. The FA-N3 solution was then removed, and each well was washed with 1×PBST three times. 45 μL of BHQ2-N3 solution (25 μM in 1×PBST) was added to each well, and the slide/PDMS device was incubated at 37° C. for 1 hour, allowing BHQ2-N3 to react with unoccupied DBCO sites. After removing the BHQ2-N3 solution, and the device was washed with 1×PBST three times. The PDMS slab was then removed, and the slide was washed with 1×PBS, 50% 1×PBS/water, and water. The slide was then air-dried, and the fluorescence intensities were obtained using a Genepix microarray scanner. Experiments were run in quadruplets to get the error bar.
The U87 cells were collected via centrifugation at 500 g for 5 min. The media was removed, and the cells were resuspended in FBS-free DMEM, resulting in a 4 M cells/mL suspension. 250 μL of the cell suspension was dispensed into Eppendorf tubes, and mixed with 250 μL of the FA-N3 solution (various concentrations, in FBS free DMEM). After 30 min incubation in the cell incubator, the cells were centrifuged at 500 g for 5 min and the resulting pellet was washed 3 times to remove any excess FA-N3. Then, 100 μL cell lysis buffer was added to each tube, and kept on ice for 15 min. The tubes were then sonicated and vortexed for 5 min. Finally, the tubes were centrifuged at maximum speed for 10 min. The supernatant was collected and subjected to surface-based FA-N3 detection.
Because of their hydrophobic tails, fatty acids may insert into the cell membrane. This partition is not an active transportation process and may confound the analysis. On the other hand, it was expected that the inserted probe molecules would remain in the membrane fragments upon cell lysis and not be detected by the assay. To assess this potential interference, we incubated the cells with the FA-N3 probe at 4° C. and used our platform to quantify the FA-N3 in the cells. At such a low temperature, the cells would stop the active transportation of the probe, and any observed signal would originate from the nonspecific insertion into the cell membrane. […] To rule out the possibility that the low-temperature treatment dampened the rate of the nonspecific insertion, we performed another experiment where we fixed the cells and then incubated them with the FA-N3 probe at 37° C. Again, the resulted signal was negligible (FIG. 3G).

U87VIII cells [3] = test system: U87VIII cells
Procedure: as §1

U87VIII single cells = assay: Single-cell barcode chip (SCBC) FA-N3 uptake measurement; type: cell-based, human
Procedure: For SCBC measurements, the as-prepared single cells were resuspended in warm FBS-free media supplemented with 10 mM FA-N3 at 2 M cells/mL. After being incubated at 37° C. for 30 min and washed with FBS-free media 3 times, the collected cell pellet was resuspended in serum-free, biotin-free media. The concentration of the as-prepared single-cell suspension was 2 M cells/mL.
The SCBCs were fabricated according to well-established procedures (Xue et al (2015) J Am Chem Soc 137 (12): 4066-4069). DNA-encoded antibody library (DEAL) was grafted onto the surface through DNA hybridization to enable capture antibody arrays. The FA surface probe was also incorporated onto the surface barcode through the same procedure.
The SCBC devices were operated following previously established protocols (Xue et al (2015) J Am Chem Soc 137 (12): 4066-4069)). Briefly, FA-N3 detection was achieved by a surface-based competitive FRET assay, and protein detection was carried out by a sandwich immunofluorescence assay. The cells were loaded in the SCBC with FA-N3 first. Then each cell was isolated and lysed on each chamber. Upon cell lysing, FA-N3 and other analytes were released from the cell and captured on the surface. Subsequently, the detection cocktail containing BHQ2-N3 and antibodies were added to the chamber, and the fluorescence readout was recorded.
The dendrimer-ssDNA conjugate can be mixed with a cocktail of antibody-ssDNA conjugates to enable multiplex quantitation. As a proof of concept, we quantified the azidopentanoic acid uptake, critical signaling protein levels, and cell proliferation marker (Ki67) in U87VIII single cells. […] We further investigated if the FA-N3 uptake was dictated by the cell volume.

## azidopentanoic acid [FA-N3]
U87VIII cells [1]
  concentration well tolerated by cells: up to 20 mM
U87VIII cells [2]; U87VIII cells incubated with the probe at 4° C., vs control
  uptake signal after incubation at 4° C.: indistinguishable from the control
U87VIII cells [2]; U87VIII cells, bulk level
  FA-N3 concentration above which uptake signal leveled off: above 10 mM
U87VIII cells [2]; U87VIII cells, bulk level, 30 min incubation, varying FA-N3 concentrations
  cellular uptake of FA-N3 probe: concentration-dependent manner
U87VIII cells [2]; fixed U87VIII cells incubated with the probe at 37° C.
  uptake signal in fixed cells: negligible
U87VIII cells [3]
  tolerance of the probe by the cells: well-tolerated
U87VIII single cells
  intracellular FA-N3 concentration: high μM to low mM
U87VIII single cells; calculated from the standard curve
  fatty acid concentrations in the chambers: high nM to low μM
U87VIII single cells; chamber volume 2 nL
  FA-N3 amount taken up by each cell: low fmol-level
